# Assay results: ChEMBL document CHEMBL4842343, “1,10-Seco-Eudesmane sesquiterpenoids as a new type of anti-neuroinflammatory agents by suppressing TLR4/NF-κB/MAPK pathways” (Eur J Med Chem, 2021)
# Active and inactive are the calls of the source. The calls are words filed in the database; no cut-off is given here.
# Columns and labels:
# BV-2 [1] = assay: Inhibition of COX-1 expression in LPS-stimulated mouse BV-2 cells at 1 to 10 uM measured after 24 hrs by western blot analysis; format: functional, cell-based; conditions: dose 1-10 µM
# [2] = Inhibition of iNOS expression in mouse BV-2 cells at 10 uM measured after 24 hrs by western blot analysis relative to control; format: functional
# BV-2 [3] = assay: Inhibition of TNF-alpha production in LPS stimulated mouse BV-2 cells measured after 24 hrs by ELISA; format: functional, cell-based; conditions: dose 1-10 µM
# BV-2 [4] = assay: Potency indes, ratio of OABC to test compound for inhibition of COX-2 expression in LPS-stimulated mouse BV-2 cells at 10 uM measured after 24 hrs by western blot analysis; format: functional
# BV-2 [5] = assay: Inhibition of TLR4/NF-kappaB signalling pathway in mouse BV-2 cells assessed as increase in CD14 cell surface expression at 10 uM pretreated for 1 hr and measured after 24 hrs by flow cytometry analysis (Rvb= 3.8%); format: cell-based; set-up: scale not given: the % may be the effect or the level left; conditions: time 25.0 hrs
# BV-2 [6] = assay: Antineuroinflammatory activity in LPS- stimulated mouse BV-2 cells assessed as conversion of microglia from M1 to M2 phenotype macrophages by measuring IL-10 production at 1 uM measured after 24 hrs by ELISA; format: functional, cell-based
# BV-2 [7] = assay: Inhibition of PGE2 production in LPS- stimulated mouse BV-2 cells measured after 24 hrs by ELISA; format: functional, cell-based; conditions: dose 1-10 µM
# [8] = Effective permeability of the compound in PBS/EtOH buffer (9:1) at […] after 10 hrs by HPLC-UV based PAMPA-BBB assay; format: ADME; conditions: read-out: permeability
# BV-2 [9] = assay: Antineuroinflammatory activity in LPS- stimulated mouse BV-2 cells assessed as conversion of microglia from M1 to M2 phenotype macrophages by measuring arginase-1 level at 10 uM measured after 24 hrs by ELISA; format: functional, cell-based
# BV-2 [10] = assay: Inhibition of NF-kappaB p65 translocation in LPS-stimulated mouse BV-2 cells assessed as distribution of NF-kappaB p65 in nucleus and cytoplasm at 3 uM pretreated for 1 hr followed by LPS stimulation measured after 24 hrs by DAPI staining based immunofluorescence assay; format: cell-based; conditions: time 25.0 hrs
# BV-2 [11] = assay: Cytotoxicity against LPS-stimulated mouse BV-2 cells assessed as reduction in cell viability at 10 uM measured after 24 hrs by MTT assay relative to control; format: cell-based; conditions: bv-2, 24 h
# BV-2 [12] = assay: Inhibition of ERK phosphorylation in LPS-stimulated mouse BV-2 cells at 0.3 to 10 uM measured after 2 hrs by western blot analysis; format: cell-based; conditions: dose 0.3-10 µM
# BV-2 [13] = assay: Inhibition of TLR4/NF-kappaB signalling pathway in LPS- stimulated mouse BV-2 cells assessed as reduction in IRAK1 expression measured after 24 hrs by western blot analysis; format: cell-based; conditions: dose 0.3-10 µM
# [14] = Potency indes, ratio of OABC to test compound for Inhibition of iNOS expression in LPS-stimulated mouse BV-2 cells at 10 uM measured after 24 hrs by western blot analysis; format: functional
# BV-2 [15] = assay: Inhibition of COX-2 expression in mouse BV-2 cells at 10 uM measured after 24 hrs by western blot analysis; format: functional, cell-based
# BV-2 [16] = assay: Antineuroinflammatory activity in LPS- stimulated mouse BV-2 cells assessed as upregulation of HO-1 expression measured after 24 hrs by immunoblotting analysis; format: functional, cell-based; conditions: dose 1-10 µM
# BV-2 [17] = assay: Inhibition of COX-2 expression in LPS-stimulated mouse BV-2 cells measured after 24 hrs by western blot analysis; format: functional, cell-based
# [18] = molecular target: MAP kinase p38 (Mus musculus) (UniProt P47811+O08911+Q9WUI1+Q9Z1B7); assay: Inhibition of p38 MAPK phosphorylation in LPS-stimulated mouse BV-2 cells measured after 2 hrs by western blot analysis; format: cell-based; conditions: dose 0.3-10 µM
# BV-2 [19] = assay: Antineuroinflammatory activity in LPS- stimulated mouse BV-2 cells assessed as fold increase in HO-1 expression at 10 uM measured after 24 hrs by immunoblotting analysis relative to control; format: functional
# BV-2 [20] = assay: Inhibition of COX-1 expression in mouse BV-2 cells at 10 uM measured after 24 hrs by western blot analysis; format: functional, cell-based
# [21] = Inhibition of iNOS expression in LPS-stimulated mouse BV-2 cells at 10 uM measured after 24 hrs by western blot analysis relative to control; format: functional
# BV-2 [22] = assay: Inhibition of TLR4/NF-kappaB signalling pathway in LPS- stimulated mouse BV-2 cells assessed as reduction in MyD88 expression at 0.3 to 10 uM measured after 24 hrs by western blot analysis; format: cell-based; conditions: dose 0.3-10 µM
# BV-2 [23] = assay: Inhibition of iNOS expression in LPS-stimulated mouse BV-2 cells measured after 24 hrs by western blot analysis; format: functional, cell-based; conditions: dose 1-10 µM
# [24] = Inhibition of LPS-induced NO production in mouse BV-2 cells incubated for 24 hrs by Griess reagent based assay; format: functional, cell-based; conditions: Mus musculus, BV-2, 24 h; read-out: EC50
# [25] = Potency index, ratio of OABC EC50 to test compound EC50 for inhibition of LPS-induced NO production in mouse BV-2 cells incubated for 24 hrs by Griess reagent based assay; format: functional
# BV-2 [26] = assay: Inhibition of TLR4/NF-kappaB signalling pathway in LPS-stimulated mouse BV-2 cells assessed as decrease in CD14 cell surface expression at 10 uM pretreated for 1 hr followed by LPS stimulation and measured after 24 hrs by […] (reference value: 27.2%); format: cell-based; set-up: scale not given: the % may be the effect or the level left; conditions: time 25.0 hrs
# BV-2 [27] = assay: Inhibition of TNF-alpha production in mouse BV-2 cells at 10 uM measured after 24 hrs by ELISA; format: functional, cell-based
# BV-2 [28] = assay: Inhibition of PGE2 production in mouse BV-2 cells at 10 uM measured after 24 hrs by ELISA; format: functional, cell-based
compound,measurement,setting,value
C=C1C(=O)O[C@@H]2CC(CBr)=C([C@@H](C)CCCOC(C)=O)[C@@H](OC(C)=O)[C@H]12,inhibition,BV-2 [1],inactive
same,inhibition at 10 µM,[2],12.2%
same,inhibition,BV-2 [3],Dose-Dependent Effect
same,fold change (FC),BV-2 [4],4
same,Activity,BV-2 [5],10.6%
same,Activity,BV-2 [6],Active
same,inhibition,BV-2 [7],Dose-Dependent Effect
same,Papp at 10 h,[8],6.5 ×10⁻⁶ cm/s
same,Activity,BV-2 [9],Active
same,inhibition,BV-2 [10],Active
same,Activity,BV-2 [11],90.6%
same,inhibition,BV-2 [12],inactive
same,inhibition,BV-2 [13],Dose-Dependent Effect
same,fold change (FC),[14],4
same,inhibition,BV-2 [15],Active
same,Activity,BV-2 [16],Dose-Dependent Effect
same,inhibition,BV-2 [17],Dose-Dependent Effect
same,Activity,[18],Dose-Dependent Effect
same,fold change (FC),BV-2 [19],2.8
same,inhibition,BV-2 [20],inactive
same,inhibition at 10 µM,[21],11.2%
same,inhibition,BV-2 [22],inactive
same,inhibition,BV-2 [23],Dose-Dependent Effect
same,EC50,[24],700 nM
same,Ratio EC50,[25],6
same,Activity,BV-2 [26],9.9%
same,inhibition,BV-2 [27],inactive
same,inhibition,BV-2 [28],inactive
